In ChEMBL document CHEMBL1201862, “PubChem BioAssay data set” (2004):
Counter-ions that a name gives are not always drawn. The source made the active and inactive calls.

Key:
NADPH oxidase 1 = target: T1, NADPH oxidase 1 (Homo sapiens, UniProt Q9Y5S8); assay: Late-stage luminescence-based cell-based dose response assay to identify inhibitors of NADPH oxidase 1 (NOX1): Purchased analogs 2.; assay type: functional
T1 sequence (Q9Y5S8 whole entry): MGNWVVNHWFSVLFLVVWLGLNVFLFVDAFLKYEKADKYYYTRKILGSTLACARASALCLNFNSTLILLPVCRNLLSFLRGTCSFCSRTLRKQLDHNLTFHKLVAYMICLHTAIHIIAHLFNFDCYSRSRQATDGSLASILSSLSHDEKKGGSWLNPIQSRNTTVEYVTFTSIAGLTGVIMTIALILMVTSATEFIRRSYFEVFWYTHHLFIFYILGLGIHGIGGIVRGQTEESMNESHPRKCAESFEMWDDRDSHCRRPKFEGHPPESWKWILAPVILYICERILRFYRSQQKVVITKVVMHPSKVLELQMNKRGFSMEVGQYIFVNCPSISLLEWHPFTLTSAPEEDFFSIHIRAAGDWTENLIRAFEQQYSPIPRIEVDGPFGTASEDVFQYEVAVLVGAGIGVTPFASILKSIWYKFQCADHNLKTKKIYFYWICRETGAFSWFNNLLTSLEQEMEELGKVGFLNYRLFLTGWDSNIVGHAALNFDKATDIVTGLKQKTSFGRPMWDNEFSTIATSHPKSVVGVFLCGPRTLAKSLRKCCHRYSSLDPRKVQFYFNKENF

[1] = Vero cell cytotoxicity, dose response, cytotoxicity control for Vif-APOBEC3G degradation inhibitor project, Vero cells (AID 1117358); assay type: functional; conditions: Human immunodeficiency virus 1, Vero
[2] = target: T2, High affinity choline transporter 1 (Homo sapiens, UniProt Q9GZV3); assay: CHT inhibitors, dose response, cell-based, 10-point CRC, membrane potential dye (AID 588401); assay type: functional;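 also: membrane potential dye fluorescence of choline-evoked depolarization via CHT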
T2 sequence (Q9GZV3 whole entry): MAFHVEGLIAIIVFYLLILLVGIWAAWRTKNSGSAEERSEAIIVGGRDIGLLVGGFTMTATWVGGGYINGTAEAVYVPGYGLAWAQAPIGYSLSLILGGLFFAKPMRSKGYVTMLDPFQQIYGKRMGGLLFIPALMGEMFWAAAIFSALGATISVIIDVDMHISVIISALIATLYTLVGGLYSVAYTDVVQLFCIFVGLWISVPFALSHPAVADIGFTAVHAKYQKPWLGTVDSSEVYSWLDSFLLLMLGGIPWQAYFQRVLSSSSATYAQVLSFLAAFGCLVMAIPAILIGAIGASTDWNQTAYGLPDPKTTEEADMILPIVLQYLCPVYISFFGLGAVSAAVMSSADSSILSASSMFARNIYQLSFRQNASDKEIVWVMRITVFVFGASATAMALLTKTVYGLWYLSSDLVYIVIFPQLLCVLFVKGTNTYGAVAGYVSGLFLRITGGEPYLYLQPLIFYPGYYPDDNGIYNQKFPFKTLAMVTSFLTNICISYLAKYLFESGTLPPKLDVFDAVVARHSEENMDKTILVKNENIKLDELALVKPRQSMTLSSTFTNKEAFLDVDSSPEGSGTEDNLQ

[3] = target: Fructose-bisphosphate aldolase (Mycobacterium tuberculosis, UniProt P9WQA3); assay: Fluorescence-based biochemical high throughput dose response assay for inhibitors of the fructose-bisphosphate aldolase (FBA) of M. tuberculosis.; assay type: functional
Fructose-bisphosphate aldolase, sequence (P9WQA3 whole entry): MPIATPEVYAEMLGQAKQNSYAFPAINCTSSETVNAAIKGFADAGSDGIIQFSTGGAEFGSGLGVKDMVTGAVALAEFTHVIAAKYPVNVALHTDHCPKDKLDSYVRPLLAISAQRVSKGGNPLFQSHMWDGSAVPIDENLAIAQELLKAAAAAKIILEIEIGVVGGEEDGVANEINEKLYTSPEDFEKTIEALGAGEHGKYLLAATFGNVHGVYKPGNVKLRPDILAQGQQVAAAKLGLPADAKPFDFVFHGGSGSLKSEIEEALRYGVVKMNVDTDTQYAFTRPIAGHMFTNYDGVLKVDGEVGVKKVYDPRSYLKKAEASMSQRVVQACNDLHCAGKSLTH

Vero [4] = assay: cells; assay type: functional; conditions: Chlorocebus sabaeus
Vero [5] = assay: cells; assay type: functional, cell-based; conditions: Chlorocebus sabaeus
[6] = target: T2, High affinity choline transporter 1; assay: CHT inhibitors, dose response, cell-based, 5-point CRC, membrane potential dye (AID 504840); assay type: functional
Vero [7] = assay: West Nile virus antiviral activity, cell-based, CPE readout (AID 1621); assay type: functional; conditions: Chlorocebus sabaeus
[8] = Fluorescence Cell-Based Dose Response to Identify Inhibitors of Thrombin Receptor-Activating Peptide SFLLRN-Mediated P-Selectin Induction on Platelets. [Related pubchem assays: 1663 (Primary HTS), 1889 (retest at dose ), 1891 (counterscreen), 1678 (Project Summary)]; assay type: functional
[9] = Luminescence Cell-Based Dose Confirmation HTS to Identify Inhibitors of Platelet Dense Granule Release. [Related pubchem assays: 1663 (Primary HTS), 1678 (Summary of Project)]; assay type: functional
[10] = target: Luciferin 4-monooxygenase (Photinus pyralis, UniProt P08659); assay: firefly luciferase enzyme inhibitors, dose response, biochemical, luminescence (AID 1891)
Luciferin 4-monooxygenase, sequence (P08659 whole entry): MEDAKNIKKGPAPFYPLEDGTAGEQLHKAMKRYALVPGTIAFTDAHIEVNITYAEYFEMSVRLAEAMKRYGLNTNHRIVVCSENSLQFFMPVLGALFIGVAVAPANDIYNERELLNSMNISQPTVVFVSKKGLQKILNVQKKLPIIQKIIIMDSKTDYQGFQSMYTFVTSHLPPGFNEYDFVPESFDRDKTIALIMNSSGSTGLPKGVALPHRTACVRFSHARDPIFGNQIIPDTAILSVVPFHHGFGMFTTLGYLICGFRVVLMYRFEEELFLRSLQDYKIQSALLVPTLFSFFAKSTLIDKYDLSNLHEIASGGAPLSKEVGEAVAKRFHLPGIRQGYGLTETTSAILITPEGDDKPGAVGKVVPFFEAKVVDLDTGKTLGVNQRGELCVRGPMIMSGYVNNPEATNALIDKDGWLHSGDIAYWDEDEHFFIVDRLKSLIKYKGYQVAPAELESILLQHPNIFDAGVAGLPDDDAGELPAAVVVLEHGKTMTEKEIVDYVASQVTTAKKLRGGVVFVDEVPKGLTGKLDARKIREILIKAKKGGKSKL

[11] = target: T3, Tyrosine-protein phosphatase non-receptor type 7 (Homo sapiens, UniProt P35236); assay: inhibitors of human HePTP phosphatase, […], biochemical, absorbance, leukemia target (AID 521); assay type: functional
T3 sequence (P35236 whole entry): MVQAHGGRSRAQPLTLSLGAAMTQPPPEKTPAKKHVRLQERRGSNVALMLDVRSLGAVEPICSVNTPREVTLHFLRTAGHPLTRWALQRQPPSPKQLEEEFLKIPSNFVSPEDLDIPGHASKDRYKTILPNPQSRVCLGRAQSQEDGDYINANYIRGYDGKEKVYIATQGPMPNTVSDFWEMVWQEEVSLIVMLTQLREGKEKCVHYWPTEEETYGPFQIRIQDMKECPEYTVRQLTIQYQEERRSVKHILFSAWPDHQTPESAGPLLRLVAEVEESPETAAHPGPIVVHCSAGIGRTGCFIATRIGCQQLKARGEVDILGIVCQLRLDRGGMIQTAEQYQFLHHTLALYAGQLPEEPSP

[12] = target: Diphosphomevalonate decarboxylase (Streptococcus pneumoniae serotype 2 (strain D39 / NCTC 7466), UniProt Q9FD53); assay: S. pneumoniae DPM-DC inhibition retest, confirmation, biochemical, cuvette format, coupled NADH fluorescence (AID 1028); assay type: functional
Diphosphomevalonate decarboxylase, sequence (Q9FD53 whole entry): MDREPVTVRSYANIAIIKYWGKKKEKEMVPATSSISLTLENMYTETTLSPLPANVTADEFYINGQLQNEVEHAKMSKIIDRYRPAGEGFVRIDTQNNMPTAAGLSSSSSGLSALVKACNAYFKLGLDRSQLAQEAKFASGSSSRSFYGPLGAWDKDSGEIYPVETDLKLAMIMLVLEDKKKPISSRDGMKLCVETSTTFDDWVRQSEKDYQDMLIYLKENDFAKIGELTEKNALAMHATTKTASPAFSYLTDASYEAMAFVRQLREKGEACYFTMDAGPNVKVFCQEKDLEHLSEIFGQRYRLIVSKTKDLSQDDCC

Genome polyprotein = Genome polyprotein (Hepatitis C virus, UniProt Q2Q167); assay: HCV core protein dimerization inhibitors, dose response, biochemical, TR-FRET (AID 2159); design: species or system Hepacivirus hominis;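 also: blocks dimerization of HCV core protein measured by TR-FRET between tagged core106 pairs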
Genome polyprotein, sequence (Q2Q167 whole entry): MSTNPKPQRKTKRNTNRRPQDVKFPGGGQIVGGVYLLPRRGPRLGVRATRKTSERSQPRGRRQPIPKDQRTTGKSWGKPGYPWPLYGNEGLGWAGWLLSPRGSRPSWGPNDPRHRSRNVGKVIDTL

[13] = target: Signal transducer and activator of transcription 1-alpha/beta (Homo sapiens, UniProt P42224); assay: STAT1 signalling inhibitors, dose response, cell-based, NIH 3T3, luciferase reporter (AID 1396); assay type: functional
Signal transducer and activator of transcription 1-alpha/beta, sequence (P42224 whole entry): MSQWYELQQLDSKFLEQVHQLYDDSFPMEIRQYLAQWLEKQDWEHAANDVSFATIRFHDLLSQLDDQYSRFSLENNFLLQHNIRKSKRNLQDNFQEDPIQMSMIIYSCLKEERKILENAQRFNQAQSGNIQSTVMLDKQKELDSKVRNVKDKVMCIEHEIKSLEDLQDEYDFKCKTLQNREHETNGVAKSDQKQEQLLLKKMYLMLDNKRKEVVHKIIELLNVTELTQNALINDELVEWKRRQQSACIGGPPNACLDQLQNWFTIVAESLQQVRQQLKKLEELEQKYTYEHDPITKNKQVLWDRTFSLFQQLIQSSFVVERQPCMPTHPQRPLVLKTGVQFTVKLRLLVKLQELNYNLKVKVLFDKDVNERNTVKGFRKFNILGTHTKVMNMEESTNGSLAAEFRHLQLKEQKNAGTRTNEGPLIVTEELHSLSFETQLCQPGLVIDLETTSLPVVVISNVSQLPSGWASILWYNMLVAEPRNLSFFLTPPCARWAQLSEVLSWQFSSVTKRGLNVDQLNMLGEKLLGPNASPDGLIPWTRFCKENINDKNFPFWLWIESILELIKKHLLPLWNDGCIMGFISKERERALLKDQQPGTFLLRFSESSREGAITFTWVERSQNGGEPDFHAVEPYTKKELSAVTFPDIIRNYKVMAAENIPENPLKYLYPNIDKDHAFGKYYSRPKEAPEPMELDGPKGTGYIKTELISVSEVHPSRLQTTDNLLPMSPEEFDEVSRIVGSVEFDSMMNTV

[14] = Luminescence Cell-Based Dose Response HTS to Identify Activators of Luciferase Translation or Activity in H4 […] Cells. [Related pubchem assays: 1829 (Project Summary), 1814 (Primary HTS)]; assay type: functional
[15] = Luminescence Cell-Based Dose Confirmation HTS to Identify Activators of 5'UTR Stem-Loop Driven Alpha-Synuclein mRNA Translation in H4 Neuroglioblastoma Cells. [Related pubchem assays: 1829 (Project Summary), 1814 (Primary HTS)]; assay type: functional
Transthyretin = Transthyretin (Homo sapiens, UniProt P02766); assay: Luminescence-based cell-based high throughput dose response assay to identify activators of Transthyretin (TTR) transcription.; assay type: functional
[16] = target: T4, RNA-binding protein pos-1 (Caenorhabditis elegans, UniProt G5EF15); assay: inhibitors of POS-1/mex-3 RNA binding, dose response, biochemical, fluorescence polarization (AID 1964);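 also: purified POS-1 fused to maltose binding protein made in E. coli; potency of compounds blocking POS-1 binding to fluorescent RNA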
T4 sequence (G5EF15 whole entry): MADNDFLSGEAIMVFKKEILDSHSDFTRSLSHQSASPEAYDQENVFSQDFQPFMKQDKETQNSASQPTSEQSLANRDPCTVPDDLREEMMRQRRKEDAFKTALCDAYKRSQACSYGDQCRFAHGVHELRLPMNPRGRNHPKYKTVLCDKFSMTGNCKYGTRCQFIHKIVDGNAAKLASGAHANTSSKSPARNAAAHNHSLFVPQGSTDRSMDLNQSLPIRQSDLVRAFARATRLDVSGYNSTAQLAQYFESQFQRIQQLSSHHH

[17] = target: T5, Zinc finger protein mex-5 (Caenorhabditis elegans, UniProt Q9XUB2); assay: MEX-5/TCR-2 RNA interaction inhibitors, dose response, biochemical, C. elegans, fluorescence polarization (AID 1960)
T5 sequence (Q9XUB2 whole entry): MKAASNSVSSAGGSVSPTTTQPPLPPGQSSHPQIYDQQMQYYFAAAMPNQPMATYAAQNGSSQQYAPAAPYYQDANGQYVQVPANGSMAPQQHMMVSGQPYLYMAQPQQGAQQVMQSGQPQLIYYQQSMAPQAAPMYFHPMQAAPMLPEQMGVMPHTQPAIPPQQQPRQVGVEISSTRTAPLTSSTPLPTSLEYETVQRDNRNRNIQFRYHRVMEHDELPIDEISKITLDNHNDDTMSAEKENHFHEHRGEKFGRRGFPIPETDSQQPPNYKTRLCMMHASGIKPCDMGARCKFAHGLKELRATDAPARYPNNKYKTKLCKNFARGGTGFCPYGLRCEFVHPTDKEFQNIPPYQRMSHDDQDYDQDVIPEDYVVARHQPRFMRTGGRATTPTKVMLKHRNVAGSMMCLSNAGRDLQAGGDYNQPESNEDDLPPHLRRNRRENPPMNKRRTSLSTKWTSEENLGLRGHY

H4 = assay: Luminescence Cell-Based Dose Response HTS to Identify Activators of 5'UTR Stem-Loop Driven Prion Protein mRNA Translation in H4 Neuroglioblastoma Cells. [Related pubchem assays: 1829 (Project Summary), 1814 (Primary HTS)]; assay type: functional; conditions: Homo sapiens
[18] = target: T6, Carboxy-terminal domain RNA polymerase II polypeptide A small phosphatase 1 (Homo sapiens, UniProt Q9GZU7); assay: inhibitors of CTDSP1, concentration-response testing, biochemical assay, absorbance-based, actives from ultra-high-throughput screening (AID 540297); assay type: functional
T6 sequence (Q9GZU7 whole entry): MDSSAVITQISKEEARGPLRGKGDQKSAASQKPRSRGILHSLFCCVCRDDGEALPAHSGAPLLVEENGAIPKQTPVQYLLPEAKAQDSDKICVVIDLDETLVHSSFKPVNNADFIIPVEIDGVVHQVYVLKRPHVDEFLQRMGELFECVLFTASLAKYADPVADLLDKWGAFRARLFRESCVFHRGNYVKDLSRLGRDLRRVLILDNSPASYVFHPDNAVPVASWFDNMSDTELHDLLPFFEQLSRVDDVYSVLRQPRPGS

[19] = target: RNA-editing ligase 1, mitochondrial (Trypanosoma brucei brucei, UniProt P86926); assay: TbREL1 ligase inhibitors, dose response, biochemical, fluorescence, Trypanosoma brucei (AID 1117295); assay type: functional
RNA-editing ligase 1, mitochondrial, sequence (P86926 whole entry): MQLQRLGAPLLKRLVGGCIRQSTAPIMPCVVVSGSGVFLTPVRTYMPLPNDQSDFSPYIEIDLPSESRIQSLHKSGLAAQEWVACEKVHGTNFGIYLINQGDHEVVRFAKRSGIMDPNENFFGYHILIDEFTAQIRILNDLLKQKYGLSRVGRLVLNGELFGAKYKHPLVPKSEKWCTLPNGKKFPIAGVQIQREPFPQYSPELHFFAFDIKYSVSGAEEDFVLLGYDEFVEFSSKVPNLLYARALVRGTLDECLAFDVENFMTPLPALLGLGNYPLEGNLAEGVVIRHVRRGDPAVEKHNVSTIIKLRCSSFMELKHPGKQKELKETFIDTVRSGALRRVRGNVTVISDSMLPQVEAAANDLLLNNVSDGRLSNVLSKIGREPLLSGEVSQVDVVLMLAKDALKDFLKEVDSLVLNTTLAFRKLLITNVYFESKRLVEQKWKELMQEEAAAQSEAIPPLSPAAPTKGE

Caspase-6 = target: T7, Caspase-6 (Homo sapiens, UniProt P55212); assay: human caspase-6 inhibitors, dose response, biochemical, VEID-R110 fluorescence, cherry-pick (AID 720632)
T7 sequence (P55212 whole entry): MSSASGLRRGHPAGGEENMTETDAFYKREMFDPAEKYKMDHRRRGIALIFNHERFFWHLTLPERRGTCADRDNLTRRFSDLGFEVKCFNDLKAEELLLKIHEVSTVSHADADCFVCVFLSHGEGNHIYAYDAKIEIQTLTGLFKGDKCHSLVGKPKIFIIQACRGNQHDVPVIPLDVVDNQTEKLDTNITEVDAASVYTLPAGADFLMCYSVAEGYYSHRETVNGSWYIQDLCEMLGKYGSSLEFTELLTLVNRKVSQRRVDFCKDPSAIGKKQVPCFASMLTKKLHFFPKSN

[20] = target: T8, Low molecular weight phosphotyrosine protein phosphatase (Homo sapiens, UniProt P24666); assay: LMPTP phosphatase inhibitors, dose response, biochemical, OMFP substrate, fluorescence intensity, set 2 (AID 743307); assay type: functional
T8 sequence (P24666 whole entry): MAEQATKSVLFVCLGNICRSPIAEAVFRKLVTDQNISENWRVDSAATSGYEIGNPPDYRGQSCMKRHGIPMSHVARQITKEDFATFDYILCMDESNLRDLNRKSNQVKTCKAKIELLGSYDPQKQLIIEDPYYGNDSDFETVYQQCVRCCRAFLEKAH

[21] = target: T8, Low molecular weight phosphotyrosine protein phosphatase; assay: LMPTP phosphatase inhibitors, colorimetric pNPP readout, dose response, orthogonal assay, biochemical, absorbance, pNPP substrate, LMPTP-A isoform, set 2 (AID 743308); assay type: functional
[22] = target: G-protein coupled receptor 183 (Homo sapiens, UniProt P32249); assay: SAR confirmation of small molecule antagonists of the EBI2 receptor via a luminescent beta-arrestin assa.; assay type: functional
G-protein coupled receptor 183, sequence (P32249 whole entry): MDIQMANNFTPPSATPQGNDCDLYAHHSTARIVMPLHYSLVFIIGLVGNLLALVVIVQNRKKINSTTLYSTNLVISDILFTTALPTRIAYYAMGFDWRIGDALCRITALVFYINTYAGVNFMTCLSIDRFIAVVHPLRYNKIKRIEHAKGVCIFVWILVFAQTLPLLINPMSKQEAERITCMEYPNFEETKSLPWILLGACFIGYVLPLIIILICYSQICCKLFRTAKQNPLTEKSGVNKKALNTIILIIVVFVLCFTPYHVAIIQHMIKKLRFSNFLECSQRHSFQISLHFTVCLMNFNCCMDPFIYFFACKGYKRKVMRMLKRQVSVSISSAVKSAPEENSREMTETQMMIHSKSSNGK

[23] = Dose-response inhibition of insulin secretion in a rat insulinoma line at 5 mM glucose (AID 1117331); assay type: functional, cell-based; conditions: INS-1E
cells = assay type: functional, cell-based; conditions: INS-1E

C=C(NNc1c(Cl)c(Cl)nc(C(=O)O)c1Cl)c1ccc2cc(OC)ccc2c1
IC50 (NADPH oxidase 1): > 17 µM (not active)

Cc1onc(-c2ccccc2Cl)c1C(=O)N1CCN(c2cccc(Cl)c2)CC1
CC50 [1]: > 40 µM (active)

CN1CCN(CCNC(=O)c2ccc3nc(-c4ccc(F)cc4)c(-c4ccc(F)cc4)nc3c2)CC1
IC50 [2]: 1.58 µM (active) | IC50 [3]: > 1.11 µM (active) | CC50 (Vero [4]): 16.9 µM (active) | IC50 (Vero [5]): > 25 µM (active) | IC50 [6]: 4.58 µM (active) | IC50 (Vero [7]): 21.7 µM (active)

CCOc1ccc2[nH]c(NCCO)nc2c1
EC50 [8]: > 100 µM (not active) | EC50 [9]: 0.205 µM (active) | EC50 [10]: > 112 µM (not active)

O=C(Nc1ncnc2c1ncn2C1OC(COC(=O)c2ccccc2)C(F)C1O)c1ccccc1 (centres undefined)
IC50 [11]: > 100 µM (not active)

CCCNC(=O)c1cccc(-n2sc3ccccc3c2=O)c1
IC50 [12]: 18.4 µM (active)

Cc1ccc(S(=O)(=O)N2Cc3ccccc3CC2C(=O)Nc2ccc3c(c2)OCO3)cc1 (centres undefined)
IC50 (Genome polyprotein): > 49.8 µM (not active)

O=C(c1ccco1)N1CCN(c2[nH]cnc3c4ccccc4nc2-3)CC1
IC50 [13]: 16.9 µM (not active)

O=C/C(=C\Nc1ccccn1)c1nc2ccccc2o1
EC50 [14]: 10.2 µM (active) | EC50 [15]: > 120 µM (not active) | EC50 (Transthyretin): > 167 µM (inactive) | EC50 [16]: > 300 µM (not active) | EC50 [17]: > 300 µM (not active) | EC50 (H4): 32.7 µM (active)

O=C(N/N=C/c1ccc(OC(=O)c2ccccc2Cl)cc1)c1cc(O)cc(O)c1
IC50 [18]: 1.4 µM (active) | IC50 [19]: 41 µM (inactive) | AC50 (Caspase-6): 1.11 µM (active)

CN(C)CCNc1cc(-c2ccccc2)nc2ccccc12
IC50 [20]: 5.72 µM (active) | IC50 [21]: 12 µM (active)

O=C(/C=C/c1ccc(Br)cc1)N1CCN(Cc2ccc(Cl)cc2C(F)(F)F)CC1
IC50 [22]: 0.00523 µM (active)

CN(C)CC[C@@H](c1ccc(Br)cc1)c1ccccn1 [DEXBROMPHENIRAMINE MALEATE]
IC50 [23]: 3.76 µM (active) | IC50 (cells): 6.37 µM (inactive)
